Each structure is given as a SMILES string.

The first series concerns the target 5-HT6 receptor. The conditions noted are these: cited from earlier work.
Regarding `COc1ccc2c(c1)c(CCN(C)C)cn2S(=O)(=O)c1ccccc1` [MS-245], the Ki was 2.3 nM.

Tested on in a further series: not given
Settings: not given
`COc1ccccc1N1CCN(CC(O)c2cn(S(=O)(=O)c3ccc(I)cc3)c3ccc(F)cc23)CC1` (centres unmarked) [4a, 1-(5-fluoro-1-((4-iodophenyl)sulfonyl)-1H-indol-3-yl)-2-(4-(2-methoxyphenyl)piperazin-1-yl) ethan-1-ol] yielded a melting point of 94.5 to 96.4 °C.

Molecule `O=S(=O)(c1ccc(I)cc1)n1cc(C(O)CN2CCN(c3ccccn3)CC2)c2cc(F)ccc21` (centres unmarked) [4b, 1-(5-fluoro-1-((4-iodophenyl)sulfonyl)-1H-indol-3-yl)-2-(4-(pyridin-2-yl)piperazin-1-yl)ethan-1-ol] gave a melting point of 135 to 137 °C.

Consider `COc1ccccc1N1CCN(CC(O)c2cn(S(=O)(=O)c3cccc4ccccc34)c3ccc(F)cc23)CC1` (centres unmarked) [4d, 1-(5-fluoro-1-(naphthalen-1-ylsulfonyl)-1H-indol-3-yl)-2-(4-(2-methoxyphenyl)piperazin-1-yl)ethan-1-ol], for which the melting point is 181.1 to 183.2 °C.

`O=S(=O)(c1cccc2ccccc12)n1cc(C(O)CN2CCN(c3ccccn3)CC2)c2cc(F)ccc21` (centres unmarked) [4e, 1-(5-fluoro-1-(naphthalen-1-ylsulfonyl)-1H-indol-3-yl)-2-(4-(pyridin-2-yl)piperazin-1-yl)ethan-1-ol] had a melting point of 112 to 114 °C.

`O=S(=O)(c1cccc2ccccc12)n1cc(C(O)CN2CCOCC2)c2cc(F)ccc21` (centres unmarked) [4f, 1-(5-fluoro-1-(naphthalen-1-ylsulfonyl)-1H-indol-3-yl)-2-morpholinoethan-1-ol]: the melting point fell in the range of 164.1 to 165.8 °C.

Molecule `O=S(=O)(c1cccc2ccccc12)n1cc(C(O)CN2CCN(c3ncccn3)CC2)c2cc(F)ccc21` (centres unmarked) [4g, 1-(5-fluoro-1-(naphthalen-1-ylsulfonyl)-1H-indol-3-yl)-2-(4-(pyrimidin-2-yl)piperazin-1-yl)ethan-1-ol] came in with a melting point of 100 to 103 °C.

Molecule `COc1ccc2c(c1)c(C(O)CN1CCN(c3ccccc3OC)CC1)cn2S(=O)(=O)c1ccc(I)cc1` (centres unmarked) [4j, 1-(1-((4-iodophenyl)sulfonyl)-5-methoxy-1H-indol-3-yl)-2-(4-(2-methoxyphenyl)piperazin-1-yl)ethan-1-ol] registered a melting point of 101 to 104 °C.

As for `COc1ccc2c(c1)c(C(O)CN1CCOCC1)cn2S(=O)(=O)c1ccc(I)cc1` (centres unmarked) [4k, 1-(1-((4-iodophenyl)sulfonyl)-5-methoxy-1H-indol-3-yl)-2-morpholinoethan-1-ol], the melting point was in the range of 120 to 124 °C.

`COc1ccc2c(c1)c(C(O)CN1CCN(c3ccccc3OC)CC1)cn2S(=O)(=O)c1cccc2ccccc12` (centres unmarked) [4l, 1-(5-methoxy-1-(naphthalen-1-ylsulfonyl)-1H-indol-3-yl)-2-(4-(2-methoxyphenyl)piperazin-1-yl)ethan-1-ol] showed a melting point of 105 to 107 °C.

Turning to `COc1ccc2c(c1)c(C(O)CN1CCOCC1)cn2S(=O)(=O)c1cccc2ccccc12` (centres unmarked) [4m, 1-(5-methoxy-1-(naphthalen-1-ylsulfonyl)-1H-indol-3-yl)-2-morpholinoethan-1-ol], the melting point fell in the range of 190 to 192 °C.

By Ki is commonly meant the dissociation constant of the complex between target and ligand, obtained from inhibition or displacement. Broadly, the melting point is the temperature of the solid-liquid transition.

The record behind these values is publication PMC8227400, “Novel N-Arylsulfonylindoles Targeted as Ligands of the 5-HT6 Receptor. Insights on the Influence of C-5 Substitution on Ligand Affinity” (Pharmaceuticals, 2021).
